Entries after “also recorded” stand apart in the source; their conditions may differ. Like-named read-outs stand apart in the source and are kept apart here.
Assays:
[1] = target: T1, arylhydrocarbon receptor (AhR) (Homo sapiens, UniProt P35869); experiment: HepG2-AhR-Luciferase assay; conditions: EC50 (uM), 24 hours of treatment
T1 sequence (P35869 11-848): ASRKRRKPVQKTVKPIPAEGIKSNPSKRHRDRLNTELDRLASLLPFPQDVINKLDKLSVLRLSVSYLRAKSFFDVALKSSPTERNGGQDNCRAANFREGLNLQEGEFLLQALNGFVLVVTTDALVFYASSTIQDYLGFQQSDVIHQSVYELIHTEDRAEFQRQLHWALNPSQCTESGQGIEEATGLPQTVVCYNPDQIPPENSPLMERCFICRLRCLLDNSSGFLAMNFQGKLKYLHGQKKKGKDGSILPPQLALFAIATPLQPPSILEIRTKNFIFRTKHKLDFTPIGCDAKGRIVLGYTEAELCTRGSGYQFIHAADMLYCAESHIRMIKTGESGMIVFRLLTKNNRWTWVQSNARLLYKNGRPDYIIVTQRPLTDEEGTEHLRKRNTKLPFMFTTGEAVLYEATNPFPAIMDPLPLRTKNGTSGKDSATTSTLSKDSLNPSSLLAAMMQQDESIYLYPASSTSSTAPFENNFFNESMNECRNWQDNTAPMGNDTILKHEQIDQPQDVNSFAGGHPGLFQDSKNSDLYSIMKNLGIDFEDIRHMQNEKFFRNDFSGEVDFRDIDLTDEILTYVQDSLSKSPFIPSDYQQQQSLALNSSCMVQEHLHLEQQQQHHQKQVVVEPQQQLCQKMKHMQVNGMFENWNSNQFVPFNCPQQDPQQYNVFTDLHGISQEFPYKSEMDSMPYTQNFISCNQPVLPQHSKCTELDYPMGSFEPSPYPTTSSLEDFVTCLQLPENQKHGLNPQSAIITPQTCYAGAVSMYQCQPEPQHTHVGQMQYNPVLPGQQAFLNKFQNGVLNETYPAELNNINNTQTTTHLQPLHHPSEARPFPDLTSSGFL
Protocol: HepG2-AhR-Luc cells were purchased from Pharmaron, One-Glo Luciferase assay system was purchased from Promega. DMEM was purchased from Hyclone, and penicillin/streptomycin was purchased from Solabio.
Culture media for stably transfected HepG2 cells was prepared by supplementing DMEM with high glucose and L-glutamine, as well as 10% FBS.
HepG2-AhR-Luc cells were cultured in T-75 flasks at 37° C., 5% CO2, and 95% relative humidity. Cells were allowed to reach 80-90% confluence before detachment and splitting.
Cultivated cells were rinsed with 5 mL PBS. PBS was aspirated away, 1.5 mL trypsin was added to the flask, and cells were incubated at 37° C. for approximately 5 minutes or until the cells detached and floated. Trypsin was inactivated by adding excess serum-containing media.
The cell suspension was transferred to a conical tube and centrifuged at 120 g for 10 minutes to pellet the cells. Cells were resuspended in seeding media at a proper density. 40 μL of cells were transferred to a 384-well culture plate (5×10^3 cells/well). Plates were placed in the incubator at 37° C. for 24 hours.
Afterward, stock solutions of test compounds and omeprazole positive control were prepared. Compound solutions were transferred into the assay plate using Echo550. The plate was then placed back into the incubator for compound treatment.
Later, after 24 hours of treatment, the plate was removed from the incubator and allowed to cool at ambient temperature. 30 μL One-Glo reagent equal to that of the culture medium was added in each well. Cells were allowed to lyse for at least 3 minutes, and then measured in a luminometer.
Dose responses were graphed using the non-linear regression analysis in XLfit and EC50 values were also calculated.

MelanoDerm™ Skin Model [2] = experiment: MelanoDerm Study 2, melanin assay (Example 19); assay type: cell-based, human; conditions: 500 μM, 7-day period
Protocol: The study also evaluated the potential dermal irritation induced by each test article as measured by the conversion of MTT by MelanoDerm™ tissues after repeated exposures to the test articles, over the 7 day treatment period.
The test articles, Malassezin (CV-8684), Compound B (CV-8877), Compound E (AB12508), Compound H (AB12509), an unknown composition, Compound A5 (CV-8819), and 052 (AB12976), were prepared by diluting the stock concentrations with EPI-100-LLMM to final concentrations of 200 μM and 500 μM. The test article, Compound I (CV-8686), was prepared by diluting the stock concentration to 500 μM. All of the dilutions were vortexed for at least 1 minute, and then heated in a water bath at 37°±1° C. for 15 minutes. The dilutions were then vortexed again for at least 1 minute prior to being dosed on the tissues. The test article and solvent control, DMSO, was prepared as a 0.5% (v/v) dilution in EPI-100-LLMM. The test article dilution was vortexed for at least 1 minute and then again for at least 1 minute prior to being applied onto the tissues. […]
The raw absorbance data were captured. The OD490 value of each melanin standard was determined. […] The corrected OD490 value of each melanin standard concentration was determined by subtracting the OD490 value of the blank well from the OD490 value of the melanin standard concentration. […]

[3] = tested on: Caspase 3/7 in MeWo cells; experiment: Caspase-Glo 3/7 assay (Example 16); assay type: cell-based; conditions: 100 uM
Protocol: (§1) Cells were harvested and the cell number was determined using a Countess Cell Counter. The cells were diluted with culture medium to the desired density.
(§2) Test compounds were dissolved in DMSO to 30 mM stock. […] After the indicated incubation time, the plates were removed from the incubator for detection.
(§3) Caspase-Glo 3/7 reagents also were thawed and equilibrated to room temperature before the experiment.

[4] = tested on: Caspase 3/7 in WM115 cells; experiment: Caspase-Glo 3/7 assay (Example 16); assay type: cell-based; conditions: 100 uM
Protocol: as §1, §2, §3

[5] = tested on: primary human melanocytes; conditions: cited from earlier work
MelanoDerm™ Skin Model [6] = experiment: MelanoDerm assay, pigmentation of tissues (Example 12); assay type: cell-based, human; conditions: day 7; 200 μM and 50 μM
Protocol: The MelanoDerm™ Skin Model will be exposed to the test article for a total of 7 days. […] (Berridge et al., 1996).
Ten and 25 microliters, respectively, of each test article will be applied to each tissue. Twenty five microliters of the positive and negative controls, respectively, will be applied to each tissue.
The definitive assay will include a negative control and a positive control. The MelanoDerm™ tissues designated to the assay negative control will be treated with 25 μL of sterile, deionized water. Twenty five microliters of 1% Kojic acid (prepared in sterile, deionized water and filtered at the time of preparation) will be used to dose the tissues designated to the assay positive control. The 1% Kojic acid will be stored in a tube covered with aluminum foil until used within 2 hours of preparation. The negative and positive control exposure times will be identical to those used for the test articles.
The exact procedures used to collect images of the tissues will be specified in the study workbook and report.
The trial will be conducted over a 7-day timeframe.
The exact procedures used to collect images of the tissues will be specified in the study workbook and report. Then, the viability of the tissues will be determined by MTT reduction as indicated below.

[7] = target: T1, arylhydrocarbon receptor (AhR); set-up: HepG2 cells stably transfected with an AhR-responsive luciferase reporter gene plasmid; host or cells: HepG2-AhR-Luc (HepG2 stably transfected with an AhR-responsive luciferase reporter plasmid); conditions: cited from earlier work
MeWo cells [8] = experiment: Annexin V assay (Example 16); assay type: cell-based; conditions: 100 uM
Protocol: as §1, §2
(§4) For the Annexin V assay, plates were removed from the incubator and culture media was removed. […] Plates were read using ImageXpress Nano.

B16F1 cells = experiment: Annexin V assay (Example 16); assay type: cell-based; conditions: 100 uM
Protocol: as §1, §2, §4

WM115 cells [9] = experiment: Annexin V assay (Example 16); assay type: cell-based; conditions: 100 uM
Protocol: as §1, §2, §4

[10] = tested on: UV-induced erythema of the subject's skin; experiment: In vivo photoprotection proof of concept, UVB irradiation of treated skin sites (Example 38); set-up: species or system human
Text: The Malassezin 1% formulation used in this study contained the following ingredients: Water (aqua)—65.939%; Dimethyl isosorbide—20.000%; Olive Oil Glycereth-8 Esters—3.000%; Glycerin—2.991%; Coconut Alkanes—2.700%; Hydroxyethyl Acrylate/Sodium Acryloyldimethyl Taurate Copolymer—1.700%; Malassezin—1.000%; Pentylene Glycol—1.000%; Phenoxyethanol—0.640%; Coco-Caprylate/Caprate—0.300%; Caprylyl Glycol—0.200%; Chlorphenesin—0.160%; Sorbitan Isostearate—0.140%; Tocopherol—0.100%; Polysorbate 60-0.080%; and Disodium EDTA—0.050%.
A Skin Type IV […] was included in this Proof of Concept study.
A template of 6 squares was placed on the lower left back (1.5 cm×1.5 cm) of the test subject.
Twenty-four hours after irradiation, the subject returned for MED assessment.
A second right lower square was treated twice daily from day 4 to day 7, and a third medial square for one application on day 7. The product vehicle was applied for 7 days twice daily on the left back. The subject returned to the research center for irradiation on day 7. Each test site was irradiated with 120 mJ of UVB exposure. The subject returned in 24 hours for assessment of phototoxicity/photoprotection.
The subject continued the experiment, receiving Malassezin 1% for a total of 14 days. […]

MeWo cells [11] = experiment: Preliminary annexin V-FITC assay (Example 7); assay type: cell-based; conditions: 6-hour treatment, preliminary screen
Protocol: (§5) MeWo (ATCC® HTB-65™) and WM115 (ATCC® CRL-1675) cells were purchased from ATCC (Manassas, Va.) and maintained in the following: for MeWo:DMEM supplemented with 10% FBS; for WM115: RPMI 1640 supplemented with 10% FBS (10% FBS, 1% stabilized antibiotic anti-mycotic solution).
(§6) During the first set of studies, both MeWo and WM115 cells were treated with test compounds at 10 doses starting from 100 μM with 3-fold dilution. Staurosporine was used as positive control. After 6-hour treatment, cell apoptosis was assessed using an annexin V assay. The test compounds evaluated were CV-8684, CV-8685, CV-8686, CV-8687, and CV-8688.
(§7) For cell seeding, cells were harvested and the cell number was determined using Countess® cell counter. Cells were then diluted with culture medium to the desired density. 40 μL of cell suspension per well was added to the required number of wells in a 384-well plate (Corning 3712—clear bottom plate). The final cell density was 6,000 cells/well. After plating, the plates were incubated at 37° C., and 5% CO2 overnight.
(§8) For preparation of compound source plate, each test compound was dissolved in DMSO to 10 mM stock. 3-fold serial dilution was performed using an EVO200™ liquid handler (TECAN) to generate ten concentrations of test compound. 0.1% DMSO was employed as vehicle (negative) control. The compound source plate was then spun at room temperature at 1,000 RPM for 1 minute and agitated using a plate shaker for 2 minutes.
(§9) For compound treatment, 40 nL of compound were transferred from the compound source plate to the 384-well culture plate using liquid handler Echo550 (LabCyte Inc.). After 6-hour incubation, the plates were removed from the incubator for detection.
(§10) For the preliminary annexin V assay, the plates were removed from the incubator and allowed to equilibrate at room temperature for 15 minutes. Culture media was then removed. 20 μL of pre-mixed annexin V-FITC and Hoechst33342 dye working solution were added to each well. The cells were then incubated at room temperature for 20 minutes. […] Afterward, the plate was read using an Acumen eX3 plate reader. The relative activity was calculated according to the following formula: Activity (%)=100%×(CountAnnexin V/CountTotal cell), and EC50 was calculated using GraphPad Prism (v. 5.01).

WM115 cells [12] = experiment: Preliminary annexin V-FITC assay (Example 7); assay type: cell-based; conditions: 6-hour treatment, preliminary screen
Protocol: as §5, §6, §7, §8, §9, §10

[13] = CellTiter-Glo cell viability assay (Example 9); assay type: cell-based; conditions: human; after 24-hour treatment; read-out: inhibition of cell viability
Protocol: (§11) CellTiter-Glo® 2.0 assay was purchased from Promega. Cell seeding, preparation of the compound source plate, and exposure of cells to test compounds were performed as described in Example 8.
(§12) CellTiter-Glo® reagents were thawed and equilibrated to room temperature before the experiment. 40 μL of CellTiter-Glo® reagent was then added to each well for detection (at 1:1 ratio to culture medium). The plates were then incubated at room temperature for 30 minutes and read using EnSpire (PerkinElmer) plate reader. The remaining activity was calculated according to the following formula: Remaining Activity (%)=100%×(Lumsample−Lumbkg)/(Lumvehicle−Lumbkg).

WM115 cells [14] = experiment: Cell morphology after treatment (Example 6); assay type: cell-based; conditions: 100 μM, 6 hours
[15] = CellTiter-Glo cell viability assay (Example 9); assay type: cell-based; conditions: human; after 24-hour treatment; read-out: inhibition of cell viability; remark: listed apart in the source
Protocol: as §11, §12

MeWo cells [16] = experiment: Cell morphology after treatment (Example 6); assay type: cell-based; conditions: 100 μM, 6 hours
yeast model = conditions: cited from earlier work

Structure (SMILES): O=Cc1c(C(c2c[nH]c3ccccc23)C2CC2)[nH]c2ccccc12 (stereo not shown) [AB12508]
- EC50 ([1]; Table 1): 15.4 µM
- EC50 ([1]; Table 2): 14.2 µM
- melanin concentration (MelanoDerm™ Skin Model [2]): 25.26 µg/mL

Structure (SMILES): COC(=O)c1c(C(C)c2c[nH]c3ccccc23)[nH]c2ccccc12 (stereo not shown) [Compound B (CV-8877)]
- EC50 ([1]; Table 2): 13.8 µM
- melanin concentration (MelanoDerm™ Skin Model [2]): 25.99 µg/mL

Structure (SMILES): O=Cc1c(Cc2c[nH]c3ccccc23)[nH]c2ccccc12 [Malassezin, malassezin]
- Caspase 3/7 activation [3]: activated Caspase 3/7
- Caspase 3/7 activation [4]: activated Caspase 3/7
- apoptosis induction [5]: induces apoptosis
- EC50 ([1]; Table 2): 13.4 µM
- pigmentation of tissues (MelanoDerm™ Skin Model [6]): reduced pigmentation
- AhR agonism [7]: known agonist; also recorded: aryl hydrocarbon receptor agonist
- cell death (Annexin V staining) (MeWo cells [8]): induced cell death
- cell death (Annexin V staining) (B16F1 cells): induced cell death
- cell death (Annexin V staining) (WM115 cells [9]): induced cell death
- UV protection, conclusion of the study [10]: UV-protective properties

Structure (SMILES): CN[C@@H]1C[C@H]2O[C@@](C)([C@@H]1OC)n1c3ccccc3c3c4c(c5c6ccccc6n2c5c31)C(=O)NC4 [Staurosporine, reference compound]
- annexin V staining (MeWo cells [11]): greatly increased annexin V staining
- annexin V staining (WM115 cells [12]): greatly increased annexin V staining
- cytotoxicity at 24 h [13]: 100%
- cell morphology (WM115 cells [14]): significantly affected
- cytotoxicity at 24 h [15]: 100%
- cell morphology (MeWo cells [16]): significantly affected

Structure (SMILES): O=C1OC(c2c[nH]c3ccccc23)=C(c2c[nH]c3ccccc23)C1=O [pityrialactone, Pityrialactone]
- UV protective properties (yeast model): confirmed

Source: US11220491B2, “Photoprotective compositions containing Malassezia-derived compounds and/or chemical analogs thereof” (Versicolor Technologies, LLC, priority 2018, dated 2022)
